Experimental data from US4847297A, “Use of penicillamine for treating immune damaging illnesses” (Degussa Aktiengesellschaft, priority 1985, dated 1989).

Columns and labels:
[1] = system: HTLV-III virus (LAV-I virus); assay: inhibition of HTLV-III (LAV-I) virus replication in cell culture; assay type: cell-based, HTLV-III virus in H9 cells (human T-cell line); settings: in vitro; for inhibition at 20 µg/mL / inhibition at 40 µg/mL: Human immunodeficiency virus 1, H9, 96 h, cell culture; for inhibition at 20 µg/mL: 20 μg/ml, read-out: prevention of replication of HTLV-III virus (LAV-I virus); for inhibition at 40 µg/mL: 40 μg/ml, read-out: effectiveness in vitro (prevention of virus replication)
Experimental: At a concentrate of 20 μg/ml the replication of HTLV-III--virus (LAV-I-virus) is prevented in a cell culture with L-penicillamine to an extent of about 95% and with D-penicillamine to about 80%. At a concentration of 40 μg/ml, the effectiveness of both L-penicillamine and D-penicillamine in vitro is nearly 100%.
(§1) HTLV-III virus infection of H9 cells (human T-cell line of a leukemia patient of the National Cancer Institute, Bethesda, Md., USA); the H9 cells were trreated with Polybrene (Hexadimethrine bromide) (2 μg/ml) for 30 minutes at 37° C., subsequently the Polybrene was washed out and the cells were infected with 2×10^8 HTLV virus particles per 4×10^5 H9 cells. Before the infection, the virus was incubated with the material at various concentrations for 45 minutes at 37° C. For controls, the virus was incubated under the same experimental conditions but without addition of the material. The cell cultures were analyzed on the 4th day after infection as follows:
(§2) Immunofluorescence analysis: The effect of D- and L-penicillamine on the propagation of the HTLV-III virus in H9 cells was determined by measuring the proteins p15 and p24 (molecular weight 15,000 respectively 24,000) present in HTLV-III. The immunofluorescence analysis was carried out on fixed methanol:acetone (1:1) cells using monoclonal antibodies (National Cancer Institute USA) against HTLV-III p15 and p24. The infected cells treated with or without penicillamine were secured on toxoplasmosis glass slides. After 30 minutes treatment with methanol-acetone (1:1) at room temperature, the glass slides were stored in closed plastic containers at -20° C. until use. The monoclonal antibodies were added to duplicate wells, incubated at room temperature in a moist chamber for 1 hour and washed with PBS (phosphate buffered saline) solution containing 0.25% Triton X-100 for two hours. The cells were then exposed to goatantimouse IgG (Capell Labs.) bound with fluorescein (FITC) for 1 hour and washed with PBS buffer solution containing 0.25% Triton X-100 overnight. The glass sides were mounted with 50% glycerine and the cell fluorescence observed with a Zeiss fluorescence microscope.

[2] = system: HTLV-III virus (viral protein p15); assay: propagation of HTLV-III in H9 cells, formation of viral protein p15, immunofluorescence with monoclonal antibodies; assay type: cell-based, HTLV-III virus in H9 cells (human T-cell line); settings: for prevention of the formation of p15 virus protein (in words): FIG. 1, concentration dependence; for inhibition at 40 µg/mL: Human immunodeficiency virus 1, H9, 40 μg/ml, 4th day after infection
Experimental: FIG. 1 is a graph of the effect of D- and L-penicillamine on the propagation of HTLV-III in H9 cells through the function of the concentration determined by the formation of the viral protein 15; and
as §1, §2
(§3) The effect of D- and L-penicillamine on the propagation of HTLV-III in H9 cells was determined through the function of the material concentration by the formation of the viral proteins p15 (FIG. 1) and p24 (FIG. 2) in an immunofluorescence assay with monoclonal antibodies.

[3] = system: HTLV-III virus (viral protein p24); assay: propagation of HTLV-III in H9 cells, formation of viral protein p24, immunofluorescence with monoclonal antibodies; assay type: cell-based, HTLV-III virus in H9 cells (human T-cell line); settings: for prevention of the formation of p24 (in words): FIG. 2, same manner as with p15; for IC100: Human immunodeficiency virus 1, H9, 96 h, p24, FIG. 2, 4th day after infection, read-out: concentration needed for complete inactivation of the viral replication
Experimental: FIG. 2 is a similar graph where the determination was by the formation of viral protein p24.
as §1, §2, §3

[4] = system: HTLV-III infected H9 cells; assay: growth of HTLV-III infected H9 cells; assay type: cell-based, human; settings: for Number of cells/ml × 10^-6, infected / effect on number of infected H9 cells (in words): 4 days after infection; for Number of cells/ml × 10^-6, infected: control 0.18; for effect on number of infected H9 cells (in words): increasing concentration; for protective effect on T-cells: infected H9 cells
Experimental: as §1
(§4) In order to show the selectivity of the effect on the replication of HTLV-III virus, the effect of D- and L-penicillamine on the growth of H9 cells can be examined.
(§5) The number of cells was determined 4 days after the experiment began.
4 days after the infection with the HTLV-III virus the number of H9 cells is reduced from 1.24×10^6 to 0.18×10^6.

non-infected H9 cells = assay: in vitro; assay type: cell-based, human
Experimental: as §1, §4, §5

in vitro = assay type: cell-based, human; settings: human, h9 cells
Experimental: as §1, §4, §5

[5] = in vivo, cited from earlier work
[6] = system: plasma proteins (preponderantly albumen); settings: cited from earlier work

Compound | inhibition at 20 µg/mL [1] | inhibition at 40 µg/mL [1] | prevention of the formation of p15 virus protein (in words) [2] | inhibition at 40 µg/mL [2] | prevention of the formation of p24 (in words) [3] | IC100 [3] | Number of cells/ml × 10^-6, infected ([4]; 30 μg/ml) | Number of cells/ml × 10^-6, infected ([4]; 40 μg/ml) | Number of cells/ml × 10^-6, infected ([4]; 100 μg/ml) | effect on number of infected H9 cells (in words) [4] | protective effect on T-cells [4] | further results
CC(C)(S)[C@H](N)C(=O)O [L-penicillamine] | ~95% | ~100% | concentration dependent prevention of the formation of p15 virus protein | 98.5 to 99.4% | prevent the formation of p24 | 40 µg/mL | 0.35 cells/ml × 10^-6 | 0.38 cells/ml × 10^-6 | 0.98 cells/ml × 10^-6 | considerable increase of the cell number | protective effect on T-cells | effectiveness at lower concentration, L- versus D-penicillamine (p15) ([2]; lower concentration, FIG. 1): more effective than D-penicillamine
CC(C)(S)[C@H](N)C(=O)O [penicillamine] |  |  |  |  |  |  |  |  |  |  |  | inhibition of virus replication (in words) [1]: can greatly inhibit the virus replication; toxicity to the normal cell growth (non-infected H9 cells): shows no toxicity to the normal cell growth
CC(C)(S)[C@@H](N)C(=O)O [D-penicillamine] | ~80% | ~100% | concentration dependent prevention of the formation of p15 virus protein | 98.5 to 99.4% | prevent the formation of p24 | 40 µg/mL | 0.27 cells/ml × 10^-6 | 0.35 cells/ml × 10^-6 | 0.8 cells/ml × 10^-6 | considerable increase of the cell number | protective effect on T-cells | MCC at 96 h (in vitro): > 100 µg/mL; resorption after oral administration ([5]; po): about 60%; distribution over the entire organism [5]: distributed relatively quickly over the entire organism; elimination in unchanged form [5]: up to 10%; route and form of elimination [5]: predominantly via the kidneys, the greatest part as disulfide; binding to plasma proteins [6]: bound to plasma proteins (preponderantly albumen); free (not protein bound) concentration with increasing dosage [6]: obviously increases with increasing dosage
